3 molecules from patent publication US11014934B2, “Antiseptic drug” (AO “TATKHIMFARMPREPARATY”, priority 2017, dated 2021) can be followed below.

A word on the MIC: it is the lowest concentration found to suppress growth.

Read-outs that look alike come from different tables or passages of the source.

Test in all cases: MIC, serial dilutions in Müller-Hinton broth
What all share (assay type): cell-based

The subject of one experiment is E. faecium 27. A digest of the protocol: (§1)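 Broth microdilution in Müller-Hinton broth following MUK 4.2.1890-04, with two-fold compound dilutions at final 1-128 ug/ml. The inoculum was set to 0.5 McFarland and diluted to 10^7 CFU/ml before addition, then plates were incubated at 37° C. for 24 hours. MIC was the lowest concentration without visible growth, taking the highest of three independent runs.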

A further experiment relates to Kl. pneumoniae 1435 PR. A digest of the protocol: as §1
A further experiment deals with Acinetobacter spp. 3. A digest of the protocol:
as §1

The test system of the next experiment is E. faecium 31. A digest of the protocol: as §1
The test system of the next experiment is Ps. aeruginosa 1945 PR. The procedure, abridged: as §1
Another experiment relates to Kl. pneumoniae. A digest of the protocol:
as §1

The subject of another experiment is S. aureus 1145 MRSA. The procedure, abridged:
as §1

A further experiment has as its system E. faecalis 3060. The procedure, abridged:
as §1

In the next experiment the test system is Stenotrophomonas spp. 9. The procedure, abridged:
as §1

The next experiment deals with E. faecium 28. A digest of the protocol:
as §1

Another experiment deals with E. coli 13. A digest of the protocol:
as §1

Another experiment relates to Proteus spp. 17. A digest of the protocol:
as §1

The next experiment concerns S. haemoliticus 837 MRSA. The procedure, abridged: as §1
Another experiment concerns Klebsiella spp. 11. A digest of the protocol:
as §1

A further experiment has as its system Serratia spp. 15. The procedure, abridged:
as §1

In the next experiment the test system is S. intermedius 1061 MRSI. A digest of the protocol: as §1
In another experiment the test system is Moraxella sp.834. A digest of the protocol: as §1
Another experiment deals with S. aureus 1131 MRSA. The procedure, abridged:
as §1

The subject of the next experiment is E. faecalis 26. The procedure, abridged:
as §1

The subject of the next experiment is Moraxella sp. 765. A digest of the protocol:
as §1

In another experiment the test system is S. aureus 2020 MRSA. The procedure, abridged:
as §1

For a further experiment, the system named is E. faecium 32. The procedure, abridged: as §1

As for `CCCCCCCCCCCC[N+](C)(C)Cc1cnc(C[N+](C)(C)CCCCCCCCCCCC)c2c1COC(CC)O2` (stereo not drawn) [Compound I, 5,8-(Bis(methylene (N, N-dimethyl-N-dodecylammonium))-2-ethyl-4H-[1,3]dioxino [4,5-c]pyridiniumdichloride], the MIC is 0.03 µg/mL with E. faecium 27 (Enterococcus faecium, E. faecium 27, inoculum 10^7 CFU/ml, read-out: MIC); 32 µg/mL in the experiment with Kl. pneumoniae 1435 PR (Klebsiella pneumoniae, Kl. pneumoniae 1435 PR, inoculum 10^7 CFU/ml, read-out: MIC); 8 µg/mL in the experiment with Acinetobacter spp. 3 (Acinetobacter spp. 3, inoculum 10^7 CFU/ml, read-out: MIC); 0.03 µg/mL with E. faecium 31 (Enterococcus faecium, E. faecium 31, inoculum 10^7 CFU/ml, read-out: MIC); 64 µg/mL in the experiment with Ps. aeruginosa 1945 PR (Pseudomonas aeruginosa, Ps. aeruginosa 1945 PR, inoculum 10^7 CFU/ml, read-out: MIC); 2 µg/mL with Kl. pneumoniae (Klebsiella pneumoniae, Kl. pneumoniae, inoculum 10^7 CFU/ml, read-out: MIC). The MIC in the experiment with S. aureus 1145 MRSA (Staphylococcus aureus, S. aureus 1145 MRSA, inoculum 10^7 CFU/ml, read-out: MIC) is 2 µg/mL; with E. faecalis 3060 (Enterococcus faecalis, E. faecalis 3060, inoculum 10^7 CFU/ml, read-out: MIC), 1 µg/mL; in the experiment on Stenotrophomonas spp. 9 (Stenotrophomonas spp. 9, inoculum 10^7 CFU/ml, read-out: MIC), 8 µg/mL; in the experiment on E. faecium 28 (Enterococcus faecium, E. faecium 28, inoculum 10^7 CFU/ml, read-out: MIC), 0.03 µg/mL; with E. coli 13 (Escherichia coli, E. coli 13, inoculum 10^7 CFU/ml, read-out: MIC), 8 µg/mL; in the experiment on Proteus spp. 17 (Proteus spp. 17, inoculum 10^7 CFU/ml, read-out: MIC), 64 µg/mL. Further, the MIC with S. haemoliticus 837 MRSA (S. haemoliticus 837 MRSA, inoculum 10^7 CFU/ml, read-out: MIC) came to 8 µg/mL; in the experiment with Klebsiella spp. 11 (Klebsiella spp. 11, inoculum 10^7 CFU/ml, read-out: MIC), 16 µg/mL; in the experiment on Serratia spp. 15 (Serratia spp. 15, inoculum 10^7 CFU/ml, read-out: MIC), 16 µg/mL; in the experiment on S. intermedius 1061 MRSI (S. intermedius 1061 MRSI, inoculum 10^7 CFU/ml, read-out: MIC) it was 1 µg/mL; with Moraxella sp.834 (Moraxella sp.834, inoculum 10^7 CFU/ml, read-out: MIC) it was 4 µg/mL; in the experiment with S. aureus 1131 MRSA (Staphylococcus aureus, S. aureus 1131 MRSA, inoculum 10^7 CFU/ml, read-out: MIC), 2 µg/mL. Moreover, the MIC in the experiment with E. faecalis 26 (Enterococcus faecalis, E. faecalis 26, inoculum 10^7 CFU/ml, read-out: MIC) is 1 µg/mL; in the experiment on Moraxella sp. 765 (Moraxella sp. 765, inoculum 10^7 CFU/ml, read-out: MIC) it was 4 µg/mL; in the experiment on S. aureus 2020 MRSA (Staphylococcus aureus, S. aureus 2020 MRSA, inoculum 10^7 CFU/ml, read-out: MIC) it was 4 µg/mL; in the experiment with E. faecium 32 (Enterococcus faecium, E. faecium 32, inoculum 10^7 CFU/ml, read-out: MIC) it was 0.03 µg/mL.

With `CCCCCCCCCCCCCC(=O)NCCC[N+](C)(C)Cc1ccccc1.O.[Cl-]` [Miramistin, benzyldimethyl [3-(myristoylamino)propyl]-ammonium chloride monohydrate], the MIC in the experiment with E. faecium 27 (Enterococcus faecium, 27) was 32 µg/mL; against Kl. pneumoniae 1435 PR (Klebsiella pneumoniae, 1435PR), 64 µg/mL; against Acinetobacter spp. 3 (Acinetobacter, SPP.3) it was 64 µg/mL; against E. faecium 31 (Enterococcus faecium, 31), 4 µg/mL; with Ps. aeruginosa 1945 PR (Pseudomonas aeruginosa, 1945PR), > 64 µg/mL; against Kl. pneumoniae (Klebsiella pneumoniae), > 64 µg/mL. The MIC was 8 µg/mL against S. aureus 1145 MRSA (Staphylococcus aureus, MRSA); 8 µg/mL in the experiment on E. faecalis 3060 (Enterococcus faecalis, 3060); 64 µg/mL against Stenotrophomonas spp. 9 (Stenotrophomonas, SPP.9); 32 µg/mL with E. faecium 28 (Enterococcus faecium, 28); 32 µg/mL in the experiment on E. coli 13 (Escherichia coli, 13); > 64 µg/mL in the experiment with Proteus spp. 17. The MIC was 64 µg/mL in the experiment with S. haemoliticus 837 MRSA; 64 µg/mL in the experiment with Klebsiella spp. 11 (Klebsiella, SPP.11); > 64 µg/mL against Serratia spp. 15 (Serratia, SPP.15); 8 µg/mL against S. intermedius 1061 MRSI; 32 µg/mL in the experiment on Moraxella sp.834 (Moraxella, SP.834); 4 µg/mL in the experiment on S. aureus 1131 MRSA (Staphylococcus aureus, MRSA). In addition, the MIC in the experiment with E. faecalis 26 (Enterococcus faecalis, 26) is 4 µg/mL; in the experiment with Moraxella sp. 765 (Moraxella, SP.765), 64 µg/mL; against S. aureus 2020 MRSA (Staphylococcus aureus, MRSA), 8 µg/mL; against E. faecium 32 (Enterococcus faecium, 32) it was < 0.5 µg/mL.

“alkyldimethyl(phenylmethyl) ammonium chloride [Benzalconium chloride]”: the MIC is 0.5 µg/mL against E. faecium 27 (E. faecium 27, inoculum 10^7 CFU/ml); 32 µg/mL against Kl. pneumoniae 1435 PR (Kl. pneumoniae 1435 PR, inoculum 10^7 CFU/ml); 4 µg/mL in the experiment on Acinetobacter spp. 3 (Acinetobacter spp. 3, inoculum 10^7 CFU/ml); <0.5 µg/mL in the experiment on E. faecium 31 (E. faecium 31, inoculum 10^7 CFU/ml); >64 µg/mL against Ps. aeruginosa 1945 PR (Ps. aeruginosa 1945 PR, inoculum 10^7 CFU/ml); >64 µg/mL in the experiment on Kl. pneumoniae (Kl. pneumoniae, inoculum 10^7 CFU/ml). Besides, the MIC with S. aureus 1145 MRSA (S. aureus 1145 MRSA, inoculum 10^7 CFU/ml) was 2 µg/mL; in the experiment with E. faecalis 3060 (E. faecalis 3060, inoculum 10^7 CFU/ml), 4 µg/mL; against Stenotrophomonas spp. 9 (Stenotrophomonas spp. 9, inoculum 10^7 CFU/ml) it was 4 µg/mL; in the experiment on E. faecium 28 (E. faecium 28, inoculum 10^7 CFU/ml), <0.5 µg/mL; with E. coli 13 (E. coli 13, inoculum 10^7 CFU/ml) it was 2 µg/mL; in the experiment on Proteus spp. 17 (Proteus spp. 17, inoculum 10^7 CFU/ml), 16 µg/mL. Besides, the MIC in the experiment on S. haemoliticus 837 MRSA (S. haemoliticus 837 MRSA, inoculum 10^7 CFU/ml) was 16 µg/mL; with Klebsiella spp. 11 (Klebsiella spp. 11, inoculum 10^7 CFU/ml) it was 2 µg/mL; with Serratia spp. 15 (Serratia spp. 15, inoculum 10^7 CFU/ml), 2 µg/mL; with S. intermedius 1061 MRSI (S. intermedius 1061 MRSI, inoculum 10^7 CFU/ml) it was 4 µg/mL; against Moraxella sp.834 (Moraxella sp.834, inoculum 10^7 CFU/ml), 2 µg/mL; with S. aureus 1131 MRSA (S. aureus 1131 MRSA, inoculum 10^7 CFU/ml) it was 2 µg/mL. Also, the MIC is 0.5 µg/mL with E. faecalis 26 (E. faecalis 26, inoculum 10^7 CFU/ml); 32 µg/mL against Moraxella sp. 765 (Moraxella sp. 765, inoculum 10^7 CFU/ml); 4 µg/mL against S. aureus 2020 MRSA (S. aureus 2020 MRSA, inoculum 10^7 CFU/ml); <0.5 µg/mL against E. faecium 32 (E. faecium 32, inoculum 10^7 CFU/ml).
